Data as given in patent publication EP4759807A1, “PROTEOLYSIS TARGETING CHIMERA COMPOUND FOR DEGRADING IRAK4 AND USE THEREOF” (Shenzhen Zhongge Biological Technology Co., Ltd., priority 2023, dated 2025).
Where two headings read alike, the source gives them in different places.

Molecular target: T1, IRAK4 (Homo sapiens, UniProt Q9NWZ3)
T1 sequence (Q9NWZ3 1-460): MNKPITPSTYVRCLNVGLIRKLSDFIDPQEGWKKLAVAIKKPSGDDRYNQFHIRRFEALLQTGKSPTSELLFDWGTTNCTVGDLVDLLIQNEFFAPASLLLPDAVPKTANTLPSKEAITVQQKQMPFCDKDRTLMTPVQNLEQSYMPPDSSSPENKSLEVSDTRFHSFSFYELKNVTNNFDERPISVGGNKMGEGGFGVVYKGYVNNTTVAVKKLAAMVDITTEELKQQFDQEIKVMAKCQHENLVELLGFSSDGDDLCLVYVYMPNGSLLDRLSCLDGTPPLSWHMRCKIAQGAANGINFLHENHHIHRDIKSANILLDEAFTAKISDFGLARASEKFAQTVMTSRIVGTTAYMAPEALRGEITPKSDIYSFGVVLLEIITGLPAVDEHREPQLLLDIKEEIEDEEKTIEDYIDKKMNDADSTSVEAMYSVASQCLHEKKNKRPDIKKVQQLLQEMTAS
Assay: Hibit fluorescence detection of proteolysis (IRAK4-HiBiT in HEK293T cells)
Type: cell-based
Design: host or cells: HEK293T (ATCC)
Details: for Dmax: HEK-293T; for DC50: IRAK4-HiBiT, HEK293T cells, 24 h
Experimental: Utilizing HiBiT tag technology, the HiBiT tag-containing sequence (Seq. ID. No. 1, Beijing Tsingke Biotech Co., Ltd.) was connected to the IRAK4 plasmid (Seq. ID. No. 2, Beijing Tsingke Biotech Co., Ltd.), and the plasmid was transfected into HEK293T cells (ATCC). […] The 6-well plate that was incubated overnight was taken out. After the plate was left at room temperature for 15 min, the obtained mixture was added dropwise to the 6-well plate. […] Culture was performed at 37°C and 5% CO2 for 24 h. The 384-well plate was taken out and equilibrated to room temperature. 40 µL of Nano-Glo® HiBiT Lytic Detection System (Promega N3030) was added to each well and incubated at room temperature for 15 min. […] Prism 9.3 software was used to perform fitting analysis for data, and non-linear fitting (non-liner inhibitor (Bell-shaped)) and four parameters (4 parameter) were used, and the parameters was as follows: Span1 = Plateau1−Dip [formula] Span2 = Plateau2−Dip [formula] Section1 = Span1/(1+10^(∧)((LogEC50_1−X)*nH1)) [formula] Section2 = Span2/(1+10^(∧)((X−LogEC50_2)*nH2)) [formula]
The equation was as follows: Y=Dip+Section1+Section2. • Seq. ID. No. 1 ([…]), other DNA, synthetic construct, sequence length 33; • Seq. ID. No. 2 [formula]

| Structure (SMILES) | Dmax [%] | DC50 (read-out: DC50) [nM] | DC50 [nM] |
| --- | --- | --- | --- |
| Cn1c(=O)n(C2CCC(=O)NC2=O)c2cccc(N3CCC4(CCN(C[C@H]5CC[C@H](n6cc(-n7cc(-c8cnn9cc(C#N)cnc89)nn7)c(C(F)F)n6)CC5)C4)CC3)c21 (some centres unmarked) [Compound 189] | 60 to 70 | 0.5 to 1 | – |
| Cn1c(=O)n(C2CCC(=O)NC2=O)c2cccc(N3CCC(N4CCN(C[C@H]5CC[C@H](n6cc(-n7cc(-c8cnn9cc(C#N)cnc89)nn7)c(C(F)F)n6)CC5)CC4)CC3)c21 (some centres unmarked) [Compound 197] | 60 to 70 | 1 to 5 | – |
| Cn1c(=O)n(C2CCC(=O)NC2=O)c2cccc(N3CCC4(CCN(C[C@H]5CC[C@H](n6cc(-n7cc(-c8cnn9cc(C#N)cnc89)nn7)c(C(F)F)n6)CC5)CC4)CC3)c21 (some centres unmarked) [Compound 199] | 60 to 70 | 1 to 5 | – |
| Cn1c(=O)n(C2CCC(=O)NC2=O)c2cccc(N3CCC4(CCN(C[C@H]5CC[C@H](n6cc(-n7cc(-c8cnn9cc(C#N)cnc89)nn7)c(C(F)F)n6)CC5)CC4)C3)c21 (some centres unmarked) [Compound 202] | < 60 | 0.5 to 1 | – |
| C[C@H]1CN(c2ccn3ncc(-c4cn(-c5cn([C@H]6CC[C@H](CN7CCC8(CC7)CCN(c7cccc9c7n(C)c(=O)n9C7CCC(=O)NC7=O)C8)CC6)nc5C(F)F)nn4)c3n2)CCO1 (some centres unmarked) [Compound 203] | > 80 | < 0.5 | – |
| Cn1c(=O)n(C2CCC(=O)NC2=O)c2cccc(N3CCN(C4CCN(C[C@H]5CC[C@H](n6cc(-n7cc(-c8cnn9cc(C#N)cnc89)nn7)c(C(F)F)n6)CC5)CC4)CC3)c21 (some centres unmarked) [Compound 206] | < 60 | 0.5 to 1 | – |
| C[C@H]1CN(c2ccn3ncc(-c4cn(-c5cn([C@H]6CC[C@H](CN7CC8(CCN(c9cccc%10c9n(C)c(=O)n%10C9CCC(=O)NC9=O)CC8)C7)CC6)nc5C(F)F)nn4)c3n2)CCO1 (some centres unmarked) [Compound 212] | > 80 | < 0.5 | – |
| Cn1c(=O)n(C2CCC(=O)NC2=O)c2cccc(N3CCC4(CCN(C[C@H]5CC[C@H](n6cc(-n7cc(-c8cnn9ccc(N%10CC%11(COC%11)C%10)nc89)nn7)c(C(F)F)n6)CC5)CC4)CC3)c21 (some centres unmarked) [Compound 223] | > 80 | < 0.5 | – |
| Cn1c(=O)n(C2CCC(=O)NC2=O)c2cccc(N3CCC(N4CCN(C[C@H]5CC[C@H](n6cc(-n7cc(-c8cnn9ccc(N%10CC%11(COC%11)C%10)nc89)nn7)c(C(F)F)n6)CC5)CC4)CC3)c21 (some centres unmarked) [Compound 224] | > 80 | < 0.5 | – |
| Cn1c(=O)n(C2CCC(=O)NC2=O)c2cccc(N3CCN(C[C@H]4CC[C@H](n5cc(-n6cc(-c7cnn8ccc(NCC9CC9)nc78)nn6)c(C(F)F)n5)CC4)CC3)c21 (some centres unmarked) [Compound 225] | 70 to 80 | < 0.5 | – |
| Cn1c(=O)n(C2CCC(=O)NC2=O)c2cccc(N[C@H]3CC[C@H](N(C)C[C@H]4CC[C@H](n5cc(-n6cc(-c7cnn8ccc(NCC9CC9)nc78)nn6)c(C(F)F)n5)CC4)CC3)c21 (some centres unmarked) [Compound 226] | > 80 | < 0.5 | – |
| CN1CCN(c2ccn3ncc(-c4cn(-c5cn([C@H]6CC[C@H](CN7CCN(c8cccc9c8n(C)c(=O)n9C8CCC(=O)NC8=O)CC7)CC6)nc5C(F)F)nn4)c3n2)CC1 (some centres unmarked) [Compound 227] | 60 to 70 | 1 to 5 | – |
| CN1CCN(c2ccn3ncc(-c4cn(-c5cn([C@H]6CC[C@H](CN7CCC8(CC7)CCN(c7cccc9c7n(C)c(=O)n9C7CCC(=O)NC7=O)C8)CC6)nc5C(F)F)nn4)c3n2)CC1 (some centres unmarked) [Compound 228] | 70 to 80 | < 0.5 | – |
| CN1CCN(c2ccn3ncc(-c4cn(-c5cn([C@H]6CC[C@H](CN7CCC(N8CCN(c9cccc%10c9n(C)c(=O)n%10C9CCC(=O)NC9=O)CC8)CC7)CC6)nc5C(F)F)nn4)c3n2)CC1 (some centres unmarked) [Compound 229] | 60 to 70 | < 0.5 | – |
| CN1CCN(c2ccn3ncc(-c4cn(-c5cn([C@H]6CC[C@H](CN(C)[C@H]7CC[C@H](Nc8cccc9c8n(C)c(=O)n9C8CCC(=O)NC8=O)CC7)CC6)nc5C(F)F)nn4)c3n2)CC1 (some centres unmarked) [Compound 230] | 60 to 70 | 0.5 to 1 | – |
| CN1CCN(c2ccn3ncc(-c4cn(-c5cn([C@H]6CC[C@H](CN7CCN(C8CCN(c9cccc%10c9n(C)c(=O)n%10C9CCC(=O)NC9=O)CC8)CC7)CC6)nc5C(F)F)nn4)c3n2)CC1 (some centres unmarked) [Compound 231] | 70 to 80 | 0.5 to 1 | – |
| CN1CCN(c2ccn3ncc(-c4cn(-c5cn([C@H]6CC[C@H](CN7CCC8(CCN(c9cccc%10c9n(C)c(=O)n%10C9CCC(=O)NC9=O)CC8)C7)CC6)nc5C(F)F)nn4)c3n2)CC1 (some centres unmarked) [Compound 232] | > 80 | 0.5 to 1 | – |
| CN1CCN(c2ccn3ncc(-c4cn(-c5cn([C@H]6CC[C@H](CN7CCC8(CC7)CCN(c7cccc9c7n(C)c(=O)n9C7CCC(=O)NC7=O)CC8)CC6)nc5C(F)F)nn4)c3n2)CC1 (some centres unmarked) [Compound 233] | 70 to 80 | 0.5 to 1 | – |
| Cn1c(=O)n(C2CCC(=O)NC2=O)c2cccc(N3CCN(C[C@H]4CC[C@H](n5cc(-n6cc(-c7cnn8ccc(N9CCC(C)(O)CC9)nc78)nn6)c(C(F)F)n5)CC4)CC3)c21 (some centres unmarked) [Compound 235] | > 80 | < 0.5 | – |
| Cn1c(=O)n(C2CCC(=O)NC2=O)c2cccc(N3CCN(C4CCN(C[C@H]5CC[C@H](n6cc(-n7cc(-c8cnn9ccc(N%10CCC(C)(O)CC%10)nc89)nn7)c(C(F)F)n6)CC5)CC4)CC3)c21 (some centres unmarked) [Compound 236] | > 80 | < 0.5 | – |
| Cn1c(=O)n(C2CCC(=O)NC2=O)c2cccc(N[C@H]3CC[C@H](N(C)C[C@H]4CC[C@H](n5cc(-n6cc(-c7cnn8ccc(N9CCC(C)(O)CC9)nc78)nn6)c(C(F)F)n5)CC4)CC3)c21 (some centres unmarked) [Compound 237] | 70 to 80 | < 0.5 | – |
| Cn1c(=O)n(C2CCC(=O)NC2=O)c2cccc(N3CCN(C[C@H]4CC[C@H](n5cc(-n6cc(-c7cnn8ccc(NCCC(C)(C)O)nc78)nn6)c(C(F)F)n5)CC4)CC3)c21 (some centres unmarked) [Compound 239] | > 80 | < 0.5 | – |
| Cn1c(=O)n(C2CCC(=O)NC2=O)c2cccc(N3CCC4(CCN(C[C@H]5CC[C@H](n6cc(-n7cc(-c8cnn9ccc(NCCC(C)(C)O)nc89)nn7)c(C(F)F)n6)CC5)CC4)C3)c21 (some centres unmarked) [Compound 240] | > 80 | < 0.5 | – |
| C[C@H](C#Cc1cccc2c1n(C)c(=O)n2C1CCC(=O)NC1=O)OC1CCN(C[C@H]2CC[C@H](n3cc(-n4cc(-c5cnn6ccc(N7CCOCC7)nc56)nn4)c(C(F)F)n3)CC2)CC1 (stereo partly drawn) [Example 1, 3-(4-((R)-3-((1-(((1r,4R)-4-(3-(difluoromethyl)-4-(4-(5-morpholinopyrazolo[1,5-a]pyrimidin-3-yl)-1H-1,2,3-triazol-1-yl)-1H-pyrazol-1-yl)cyclohexyl)methyl)piperidin-4-yl)oxy)but-1-yn-1-yl)-3-methyl-2-oxo-2,3-dihydro-1H-benzo[d]imidazol-1-yl)piperidine-2,6-dione] | < 60 | – | < 0.5 |
| Cn1c(=O)n(C2CCC(=O)NC2=O)c2cccc(CCCN3CCOC(CNCC4CCC(n5cc(-n6cc(-c7cnn8ccc(N9CCOCC9)nc78)nn6)c(C(F)F)n5)CC4)C3)c21 [Example 2, 3-(4-(3-((S)-2-((((4-(-3-(difluoromethyl)-4-(4-(5-morpholinopyrazolo [1,5-a]pyrimidin-3-yl)-1H-1,2,3-triazol-1-yl)-1H-pyrazol-1-ylcyclohexyl)methyl)amino)methyl)morpholinyl)propyl)-3-methyl-2-oxo-2,3-dihydro-1H-benzo[d]imidazol-1-yl)piperidine-2,6-dione] | < 60 | – | < 0.5 |
| CN(Cc1cccc2c1n(C)c(=O)n2C1CCC(=O)NC1=O)CC1CCN(C[C@H]2CC[C@H](n3cc(-n4cc(-c5cnn6ccc(N7CCOCC7)nc56)nn4)c(C(F)F)n3)CC2)CC1 (some centres unmarked) [Example 3, 3-(4-((((1-(((1r,4r)-4-(3-(difluoromethyl)-4-(4-(5-morpholinopyrazolo[1,5-a]pyrimidin-3-yl)-1H-1,2,3-triazol-1-yl)-1H-pyrazol-1-yl)cyclohexyl)methyl)piperidin-4-yl)methyl)(methyl)amino)methyl)-3-methyl-2-oxo-2,3-dihydro-1H-benzo[d]imidazol-1-yl)piperidine-2,6-dione] | 60 to 70 | – | < 0.5 |
| Cn1c(=O)n(C2CCC(=O)NC2=O)c2cccc(CN3CCC4(CC3)CC(NC[C@H]3CC[C@H](n5cc(-n6cc(-c7cnn8ccc(N9CCOCC9)nc78)nn6)c(C(F)F)n5)CC3)C4)c21 (some centres unmarked) [Example 4] | > 80 | – | < 0.5 |
| Cn1c(=O)n(C2CCC(=O)NC2=O)c2cccc(CN3CCC4(CC3)CN(C[C@H]3CC[C@H](n5cc(-n6cc(-c7cnn8ccc(N9CCOCC9)nc78)nn6)c(C(F)F)n5)CC3)CCO4)c21 (some centres unmarked) [Example 5] | < 60 | – | < 0.5 |
